Source: PubChem BioAssay (NCI)
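How tested: cells in 96-well plates exposed to compound for 48 hours at five concentrations. At the GI50, growth is halved. TGI: concentration producing complete growth inhibition.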

Assays:
Assay in all cases: NCI-60 cell line screen, 48 h
[1] = tested on: NCI-H460 lung
[2] = tested on: SK-MEL-2 melanoma
[3] = tested on: PC-3 prostate
[4] = tested on: OVCAR-4 ovarian
[5] = tested on: SR leukemia
[6] = tested on: NCI-H23 lung
[7] = tested on: IGROV1 ovarian
[8] = tested on: SF-268 CNS
[9] = tested on: HCC-2998 colon
[10] = tested on: SN12C renal
[11] = tested on: SK-OV-3 ovarian
[12] = tested on: RXF 393 renal
[13] = tested on: CCRF-CEM leukemia
[14] = tested on: T-47D breast
[15] = tested on: HOP-62 NSCLC
[16] = tested on: NCI/ADR-RES ovarian
[17] = tested on: UACC-257 melanoma
[18] = tested on: HT29 colon
[19] = tested on: HS 578T breast
[20] = tested on: MCF7 breast
[21] = tested on: NCI-H522 lung
[22] = tested on: SNB-19 CNS
[23] = tested on: DU-145 prostate
[24] = tested on: NCI-H226 lung
[25] = tested on: COLO 205 colon
[26] = tested on: A549 NSCLC
[27] = tested on: SF-295 CNS
[28] = tested on: K-562 leukemia
[29] = tested on: MDA-MB-435
[30] = tested on: KM12 colon
[31] = tested on: RPMI-8226 leukemia
[32] = tested on: U251 CNS
[33] = tested on: MALME-3M melanoma
[34] = tested on: SW-620 colon
[35] = tested on: HL-60(TB) leukemia
[36] = tested on: 786-0 renal
[37] = tested on: HOP-92 NSCLC
[38] = tested on: ACHN renal
[39] = tested on: A498 renal
[40] = tested on: MOLT-4 leukemia
[41] = tested on: UACC-62 melanoma
[42] = tested on: CAKI-1 renal
[43] = tested on: SK-MEL-5 melanoma
[44] = tested on: OVCAR-5 ovarian
[45] = tested on: HCT-15 colon
[46] = tested on: SNB-75 CNS
[47] = tested on: LOX IMVI melanoma
[48] = tested on: TK-10 renal
[49] = tested on: MDA-MB-231 breast
[50] = tested on: HCT-116 colon
[51] = tested on: BT-549 breast
[52] = tested on: SK-MEL-28 melanoma
[53] = tested on: SF-539 CNS
[54] = tested on: OVCAR-3 ovarian
[55] = tested on: OVCAR-8 ovarian
[56] = tested on: EKVX NSCLC
[57] = tested on: M14 melanoma
[58] = tested on: UO-31 renal

Q: With `O=C1CCCN1CC#CCN1CCCC1` as the compound, how does the GI50 [1] read?
A: > 100 µM

Q: And the TGI [1]?
A: > 100 µM

Q: What about the GI50 [2] of the same compound?
A: > 100 µM

Q: What about the TGI [2] of the same compound?
A: > 100 µM

Q: And the GI50 [3]?
A: > 100 µM

Q: What about the TGI [3] of the same compound?
A: > 100 µM

Q: What about the GI50 [4] of the same compound?
A: > 100 µM

Q: What about the TGI [4] of the same compound?
A: > 100 µM

Q: What about the GI50 [5] of the same compound?
A: > 100 µM

Q: What about the TGI [5] of the same compound?
A: > 100 µM

Q: And the GI50 [6]?
A: > 100 µM

Q: And the TGI [6]?
A: > 100 µM

Q: What about the GI50 [7] of the same compound?
A: > 100 µM

Q: And the TGI [7]?
A: > 100 µM

Q: What about the GI50 [8] of the same compound?
A: > 100 µM

Q: What about the TGI [8] of the same compound?
A: > 100 µM

Q: And the GI50 [9]?
A: > 100 µM

Q: And the TGI [9]?
A: > 100 µM

Q: And the GI50 [10]?
A: > 100 µM

Q: And the TGI [10]?
A: > 100 µM

Q: And the GI50 [11]?
A: > 100 µM

Q: And the TGI [11]?
A: > 100 µM

Q: And the GI50 [12]?
A: > 100 µM

Q: What about the TGI [12] of the same compound?
A: > 100 µM

Q: And the GI50 [13]?
A: > 100 µM

Q: What about the TGI [13] of the same compound?
A: > 100 µM

Q: And the GI50 [14]?
A: > 100 µM

Q: And the TGI [14]?
A: > 100 µM

Q: What about the GI50 [15] of the same compound?
A: > 100 µM

Q: What about the TGI [15] of the same compound?
A: > 100 µM

Q: And the GI50 [16]?
A: > 100 µM

Q: And the TGI [16]?
A: > 100 µM

Q: And the GI50 [17]?
A: > 100 µM

Q: And the TGI [17]?
A: > 100 µM

Q: And the GI50 [18]?
A: > 100 µM

Q: And the TGI [18]?
A: > 100 µM

Q: What about the GI50 [19] of the same compound?
A: > 100 µM

Q: And the TGI [19]?
A: > 100 µM

Q: What about the GI50 [20] of the same compound?
A: > 100 µM

Q: And the TGI [20]?
A: > 100 µM

Q: What about the GI50 [21] of the same compound?
A: > 100 µM

Q: And the TGI [21]?
A: > 100 µM

Q: And the GI50 [22]?
A: > 100 µM

Q: And the TGI [22]?
A: > 100 µM

Q: What about the GI50 [23] of the same compound?
A: > 100 µM

Q: What about the TGI [23] of the same compound?
A: > 100 µM

Q: What about the GI50 [24] of the same compound?
A: > 100 µM

Q: And the TGI [24]?
A: > 100 µM

Q: And the GI50 [25]?
A: > 100 µM

Q: And the TGI [25]?
A: > 100 µM

Q: What about the GI50 [26] of the same compound?
A: > 100 µM

Q: And the TGI [26]?
A: > 100 µM

Q: And the GI50 [27]?
A: > 100 µM

Q: And the TGI [27]?
A: > 100 µM

Q: And the GI50 [28]?
A: > 100 µM

Q: What about the TGI [28] of the same compound?
A: > 100 µM

Q: What about the GI50 [29] of the same compound?
A: > 100 µM

Q: And the TGI [29]?
A: > 100 µM

Q: And the GI50 [30]?
A: > 100 µM

Q: And the TGI [30]?
A: > 100 µM

Q: What about the GI50 [31] of the same compound?
A: > 100 µM

Q: What about the TGI [31] of the same compound?
A: > 100 µM

Q: And the GI50 [32]?
A: > 100 µM

Q: What about the TGI [32] of the same compound?
A: > 100 µM

Q: What about the GI50 [33] of the same compound?
A: > 100 µM

Q: What about the TGI [33] of the same compound?
A: > 100 µM

Q: What about the GI50 [34] of the same compound?
A: > 100 µM

Q: What about the TGI [34] of the same compound?
A: > 100 µM

Q: What about the GI50 [35] of the same compound?
A: > 100 µM

Q: What about the TGI [35] of the same compound?
A: > 100 µM

Q: And the GI50 [36]?
A: > 100 µM

Q: And the TGI [36]?
A: > 100 µM

Q: And the GI50 [37]?
A: > 100 µM

Q: What about the TGI [37] of the same compound?
A: > 100 µM

Q: And the GI50 [38]?
A: > 100 µM

Q: And the TGI [38]?
A: > 100 µM

Q: What about the GI50 [39] of the same compound?
A: > 100 µM

Q: What about the TGI [39] of the same compound?
A: > 100 µM

Q: And the GI50 [40]?
A: > 100 µM

Q: What about the TGI [40] of the same compound?
A: > 100 µM

Q: And the GI50 [41]?
A: > 100 µM

Q: What about the TGI [41] of the same compound?
A: > 100 µM

Q: And the GI50 [42]?
A: > 100 µM

Q: And the TGI [42]?
A: > 100 µM

Q: And the GI50 [43]?
A: > 100 µM

Q: And the TGI [43]?
A: > 100 µM

Q: And the GI50 [44]?
A: > 100 µM

Q: What about the TGI [44] of the same compound?
A: > 100 µM

Q: And the GI50 [45]?
A: > 100 µM

Q: What about the TGI [45] of the same compound?
A: > 100 µM

Q: And the GI50 [46]?
A: > 100 µM

Q: What about the TGI [46] of the same compound?
A: > 100 µM

Q: What about the GI50 [47] of the same compound?
A: > 100 µM

Q: What about the TGI [47] of the same compound?
A: > 100 µM

Q: What about the GI50 [48] of the same compound?
A: > 100 µM

Q: What about the TGI [48] of the same compound?
A: > 100 µM

Q: And the GI50 [49]?
A: > 100 µM

Q: What about the TGI [49] of the same compound?
A: > 100 µM

Q: And the GI50 [50]?
A: > 100 µM

Q: And the TGI [50]?
A: > 100 µM

Q: And the GI50 [51]?
A: > 100 µM

Q: What about the TGI [51] of the same compound?
A: > 100 µM

Q: What about the GI50 [52] of the same compound?
A: > 100 µM

Q: And the TGI [52]?
A: > 100 µM

Q: What about the GI50 [53] of the same compound?
A: > 100 µM

Q: What about the TGI [53] of the same compound?
A: > 100 µM

Q: And the GI50 [54]?
A: > 100 µM

Q: What about the TGI [54] of the same compound?
A: > 100 µM

Q: What about the GI50 [55] of the same compound?
A: > 100 µM

Q: And the TGI [55]?
A: > 100 µM

Q: What about the GI50 [56] of the same compound?
A: > 100 µM

Q: What about the TGI [56] of the same compound?
A: > 100 µM

Q: And the GI50 [57]?
A: > 100 µM

Q: And the TGI [57]?
A: > 100 µM

Q: What about the GI50 [58] of the same compound?
A: > 100 µM

Q: And the TGI [58]?
A: > 100 µM
